Results on 88 molecules are retold here after ChEMBL document CHEMBL1157539, “Thousands of chemical starting points for antimalarial lead identification” (Nature, 2010).

The subject of the assay is Plasmodium falciparum. The assay is described as follows: GSK_TCMDC: Inhibition of Plasmodium falciparum 3D7 in whole erythrocytes, using parasite LDH activity as an index of growth. The following applies: Plasmodium falciparum, 3D7. Type of assay: functional, organism-based.

The molecule `Cc1c2ccncc2c(C)c2c1[nH]c1ccccc12` [ELLIPTECINE] returned an XC50 of 796 nM.
For `COc1ccc(Nc2nccc(N3CCC(NC(=O)Nc4cccc(OC)c4)C3)n2)cc1` (stereo not drawn) the value was 424 nM.
`CCCNCc1ccc(-c2ccc(CN(CCOC)C(=O)c3cscn3)cc2)nc1` registered an XC50 of 178 nM.
`CCCCCCN1CCC(NCc2cccc(-n3ccnc3)c2)CC1`: the XC50 is 255 nM.
On to `Fc1ccc2[nH]c(-c3ccc(-c4ccc(CNCCc5ccncc5)cc4)cc3)nc2c1`, for which the XC50 worked out at 142 nM.
In the case of `CCC(C)NC(=O)CN1CN(c2ccccc2)C2(CCN(C(=O)c3ccc(-c4ccccc4)cc3)CC2)C1=O` (stereo not drawn), the XC50 was 128 nM.
`COc1cc(Cc2cnc(N)nc2N)cc(OCCCCC2SC(=O)NC2=O)c1Br` (stereo not drawn): the XC50 amounted to 123 nM.
Regarding `CNS(=O)(=O)c1ccc(NC(=O)c2cc(-c3cccnc3)nc3ccc(Br)cc23)cc1`, the XC50 turned out to be 907 nM.
With `NS(=O)(=O)c1cccc(-c2ccc3nccc(-c4cccc(S(N)(=O)=O)c4)c3c2)c1`, the XC50 was found to be 1270 nM.
Turning to `CCc1cc2c(Sc3nnc(N)s3)ncnc2s1`, the XC50 came out at 659 nM.
Take `COc1cccc(-c2cc(C(=O)Nc3ccc4[nH]c(-c5ccccc5)nc4c3)[nH]n2)c1`: the XC50 was 836 nM.
With `O=S(=O)(c1csc2ccccc12)N(CCC(O)(C(F)(F)F)C(F)(F)F)Cc1cccc(O)c1`, the XC50 was 360 nM.
In the case of `Cc1sc(CNCCCNc2cc(=O)c3ccccc3[nH]2)c(C(F)(F)F)c1C`, the XC50 is 734 nM.
Then `N#CCSc1nnc(-c2ccccc2)c2ccccc12`, with 723 nM; and `O=C(Cc1ccc[n+]([O-])c1)Nc1cccc(-c2cccc(-c3nc4cc(F)ccc4[nH]3)c2)c1`, with 897 nM.
Take `COc1ccc(NC(=O)c2cn(-c3ccc(C(C)(C)C)cc3)nc2C)cc1N1CCN(C)CC1`: the XC50 came to 949 nM.
`Cc1cccc2nc(-c3ccc(-c4ccc(CNCc5ccccc5)cc4)cc3)[nH]c12` yielded an XC50 of 508 nM.
`COc1ccc2nccc([C@@H](O)CN3CCC(NC(=O)C(c4cc5ccccc5o4)N4CCC(Cc5ccccc5)CC4)CC3)c2c1` (stereo partly drawn) had an XC50 of 247 nM.
Then `COc1ccc(NC(=O)/C=C/c2ccccc2Cl)cc1OCCN1CCN(c2ccncc2)CC1`, with 728 nM.
`COc1ccc(N2CCN(CCCCNC(=O)c3ccc(NC(=O)c4cc(C(F)(F)F)cc(C(F)(F)F)c4)cc3)CC2)cc1OC` returned an XC50 of 221 nM.
For `Cc1nc2c(-n3cc(Cn4ccnc4)c4ccccc43)ncnc2n1-c1ccc(Cl)cc1Cl` the value was 994 nM.
On to `COc1ccc2nccc(NC(=O)N3CCC(NCc4cc5ccccc5[nH]4)CC3)c2n1`, for which the XC50 was 556 nM.
For `CN1CC=C(c2c[nH]c3ccc(C(=O)c4nccs4)cc23)CC1`, the XC50 came to 242 nM.
Molecule `CCCCOC(=O)C1=C(C)NC2=C(C(=O)CC(c3ccc(OC)c(OC)c3)C2)C1c1ccc(O)cc1` (stereo not drawn) yielded an XC50 of 834 nM.
With `Cc1[nH]c(C)c(-c2cc3ccccc3o2)c(=O)c1Cl`, the XC50 came out at 1720 nM.
As for `O=C(Nc1ccccc1)c1c[nH]cn1`, the XC50 turned out to be 991 nM.
In the case of `CCOC(=O)c1c(C)n(-c2ccccc2)c2ccc(O)cc12`, the XC50 stood at 475 nM.
For `Cc1[nH]c(C)c(-c2ccc(-c3cc(C(F)(F)F)cc(C(F)(F)F)c3)nc2)c(=O)c1Br` the value was 81.4 nM.
Take `CCN(CC)CCCCNc1cc(-c2[nH]c(C(C)(C)C)nc2-c2ccc3cc(OC)ccc3c2)ccn1`: the XC50 was 531 nM.
Take `O=C(Nc1cccc(-c2ccc(-c3nc4cc(F)ccc4[nH]3)s2)c1)c1ccncc1`: the XC50 is 703 nM.
`Fc1ccc2[nH]c(-c3ccc(-c4ccc(CN5CCN(CCN6CCOCC6)CC5)cc4)s3)nc2c1` came in with an XC50 of 147 nM.
For `CC(Nc1nc(Nc2ccc(F)cc2)nc(SCC(N)=O)n1)c1ccccc1` (stereo not drawn), the XC50 came out at 496 nM.
Then `COc1ccc(NC(=O)/C=C/c2ccccc2Cl)cc1OCCN1CCC(N2CCCC2)CC1`, with 786 nM; and `O=C(/C=C/c1ccc(Cl)c(Cl)c1)NCCCCCCN1CCCN(C(=O)Nc2ccc(F)c(F)c2)CC1`, with 1240 nM; and `O=C(NCCc1cccc(Cl)c1Cl)c1ccc(N2CCN(c3ccncc3)CC2)nc1`, with 1060 nM.
As to `COc1ccc(C(=O)Nc2cc(Cl)c3c(c2)C2CCCN2CC3)cc1C(F)(F)F` (stereo not drawn), the XC50 is 753 nM.
For the molecule `Cc1cc(N[C@@H](CC(C)C)C(=O)NCCOc2ccccc2)nc(NCC2CCCCC2)n1`, the XC50 amounted to 972 nM.
In the case of `CCCCN(Cc1cc(Cl)c(OCC)c(OC)c1)c1ccc(C(O)(C(F)(F)F)C(F)(F)F)cc1`, the XC50 stood at 915 nM.
`COc1ccc(CCON2C(=N)N=C(N)NC2(C)C)cc1OC`: the XC50 stood at 5.91 nM.
`Clc1ccccc1CN1CCC(NCc2cccc(-n3ccnc3)c2)CC1`: the XC50 was found to be 786 nM.
In turn, `CCNC(C)(C)CN(Cc1ccc(-c2ccc(C(F)(F)F)cc2)cc1)C(=O)Cn1c(SCc2ccc(F)cc2)nc(=O)c2c1CCC2` came in with an XC50 of 991 nM.
For the molecule `CCCCNc1cc(NCCCC)c2c(n1)[nH]c1ccccc12`, the XC50 is 570 nM.
Turning to `Cc1cc(N2CCCC2)nc(Nc2ccc(NC(=O)C3CCCC3)cc2)n1`, the XC50 stood at 1110 nM.
For `COC(=O)Nc1ccc(-c2ccc(C(=O)NC3CCN(C[C@H](O)c4ccnc5ccc(OC)cc45)CC3)cc2)c(C)c1`, the XC50 worked out at 685 nM.
For `O=C(/C=C/c1ccc(-c2nc3ccc(Cl)cc3[nH]2)cc1)NC1CCN(Cc2ccccc2)CC1` the value was 610 nM; for `CC(=O)N1CCC(C(=O)Nc2ccc(-c3cccc(-c4nc5cccc(C)c5[nH]4)c3)cc2)CC1`, 313 nM; for `Cc1[nH]c(C)c(-c2ccc(OCc3cc(C(F)(F)F)cc(C(F)(F)F)c3)nc2)c(=O)c1Cl`, 108 nM.
On to `O=c1cc(NCCCNCc2ccc(Cl)c(Cl)c2)[nH]c2cc(F)cc(F)c12`, for which the XC50 amounted to 675 nM.
In turn, `COc1cccc(-c2csc(C(=O)NCC3CCN(Cc4ccc(C(C)C)cc4)C3)c2)c1` (stereo not drawn) registered an XC50 of 1390 nM.
The molecule `Cc1ccccc1C1CCN(C2CCC(NC(=O)/C=C/c3cccc(F)c3F)CC2)CC1` (stereo not drawn) registered an XC50 of 1150 nM.
For `O=C(NCCN1CCOCC1)c1ccc(O)c(-c2cccc(C(F)(F)F)c2)c1`, the XC50 came out at 752 nM.
Molecule `Cc1ccccc1OCCCON1C(=N)N=C(N)NC1(C)C` came in with an XC50 of 3.2 nM.
Then `CCOCCCNc1sc(S(=O)(=O)c2ccccc2)nc1S(=O)(=O)c1ccc(C)cc1`, with 809 nM; and `Cc1ccc(S(=O)(=O)n2nccc2-c2c(-c3ccc(Cl)cc3)noc2C)cc1`, with 809 nM; and `CCN(CC)CCCN(CCCN(CC)CC)c1cc(C)nc(Nc2ccc(Br)cc2)n1`, with 200 nM.
Molecule `CO/N=C(\C)c1ccc2c(c1)CCN(CCC1CCC(NC(=O)/C=C/c3ccc(F)cc3)CC1)CC2` (stereo not drawn) yielded an XC50 of 1070 nM.
In the case of `Cc1cc2c(cc1C(F)(F)F)N(C(=O)Nc1ccc(OCCN(C)C)c(C(F)(F)F)c1)CC2`, the XC50 turned out to be 905 nM.
Then `NC1=Nc2ccc(Cl)cc2C1(O)c1ccccc1` (stereo not drawn), with 876 nM; and `O=C(Nc1ccc(F)cc1)NC1CCN(c2ccnc3ccccc23)C1` (stereo not drawn), with 873 nM.
For `NC(=O)Nc1ccc2cn[nH]c2c1`, the XC50 came to 205 nM.
Molecule `Cc1cccc2nc(-c3ccc(-c4cccc(CN5CCN(CCN6CCOCC6)CC5)c4)s3)[nH]c12` showed an XC50 of 153 nM.
In the case of `OCCN1CCN(C(=S)NC2CCCCC2)CC1`, the XC50 was 1100 nM.
`COc1ccc(NC(=O)N2CCCN(CCCCCNC(=O)/C=C/c3ccc(Cl)cc3)CC2)cc1Cl` came in with an XC50 of 814 nM.
As for `CCc1cc2c3c(N)nc(N)nc3ccc2n1C(C)CC` (stereo not drawn), the XC50 was determined as 3.2 nM.
Consider `Cc1cc(O)c(-c2ccc(Sc3ccc(Cl)cc3)cc2)c(C)n1`, for which the XC50 was 969 nM.
As for `CCCc1cc(OC)c(CC2c3cc(O)c(Cl)cc3C(c3ccccc3)CN2C)cc1OC` (stereo not drawn), the XC50 stood at 430 nM.
Take `CC(C)CCC[C@@H]([C@@H](CC1CCCCC1)C(=O)N[C@@H](CCCCNC(=O)OCc1ccccc1)C(=O)Nc1nccs1)N(O)C=O`: the XC50 was determined as 457 nM.
On to `Cc1ccc(C(=O)NC2C(=O)NC2c2ccccc2)c(C)c1` (stereo not drawn), for which the XC50 came out at 955 nM.
Then `CN1CCC(N2CCC(Oc3cccc(C(=O)NCCCC4CCCC4)c3)CC2)CC1`, with 843 nM; and `O=C(N[C@H]1CCCC[C@H]1C(=O)O)c1ccccc1`, with 781 nM.
Then `CCCN1CCCN(Cc2cccc(NC(=O)c3ccc(-c4ccccc4)cc3)c2)CC1`, with 1110 nM; and `Cc1ccc(C)c(CN2CCC(CNC(=O)c3cc4ccc5cccnc5c4[nH]3)CC2)c1`, with 993 nM; and `N=C(N)NC(=O)Nc1cc(Br)c(Cl)c(Br)c1`, with 765 nM.
For `O=C(Nc1ccc(Cn2ncc(N3CCCNCC3)c(Cl)c2=O)cc1)Nc1ccc(-c2ccccc2)cc1`, the XC50 was 797 nM.
Then `COc1cccc(C(=O)NC(C=Cc2ccccc2)c2cc(Cl)c3cccnc3c2O)c1` (stereo not drawn), with 859 nM; and `O=C(NCC1CCN(CC2CCCCC2)C1)c1cc(-c2cccc(Cl)c2)cs1` (stereo not drawn), with 1090 nM; and `CCOc1cc(C(=O)NCCN(C(C)C)C(C)C)ccc1-c1nc2cc(Cl)ccc2[nH]1`, with 778 nM.
`Cc1nn(-c2ccc(Cl)cc2)c2[nH]c(CN3CCN(c4cccc(Cl)c4)CC3)cc(=O)c12` displayed an XC50 of 240 nM.
`COC(=O)c1cc(NC(=O)Nc2ccc(Cn3ncc(N4CCCNCC4)c(Cl)c3=O)cc2)cc(C(=O)OC)c1` showed an XC50 of 708 nM.
Then `Cc1nc(-c2ccncc2)sc1C(=O)Nc1ccc(Cl)cc1C(=O)Nc1ccc(Cl)cc1`, with 759 nM; and `Cc1c(C(C)(C)C)ccc2nc(N)nc(N)c12`, with 8.73 nM.
`O=C(NCc1ccc(F)cc1)Nc1cccc(-c2ccc(-c3nc4cc(F)ccc4[nH]3)cc2)c1` gave an XC50 of 226 nM.
Then `COc1ccc(NC(=O)Nc2cccc(-c3cccc(-c4nc5cc(F)ccc5[nH]4)c3)c2)cc1`, with 171 nM.
In turn, `O=C(NC1CCC(CN2CCC(c3c[nH]c4ccccc34)CC2)CC1)C1(O)c2ccccc2-c2ccccc21` (stereo not drawn) displayed an XC50 of 1190 nM.
The molecule `CSc1ccc(NC(=O)Nc2cc(C)nc3ccccc23)cc1` returned an XC50 of 713 nM.
As for `CCOC(=O)c1c[nH]c2c(ccc3ccccc32)c1=O`, the XC50 was 157 nM.
On to `COc1cc(C(=O)Nc2nc3ccccc3[nH]2)ccc1OCC(=O)Nc1cccc(C(F)(F)F)c1`, for which the XC50 turned out to be 738 nM.
Molecule `C=CC[C@@H](C(=O)OCC)[C@@H]1[C@@H](N(CC=C)C(=O)OC(C)(C)C)CCN1C(=O)OCc1ccccc1` registered an XC50 of 964 nM.
